# Reference: US7202068B2, “Enone reductase and methods of making and using thereof” (priority 2002, dated 2007)
# System: enone reductase
# Test: Effect of metal ions and other compounds on the enzyme activity
# Assay type: biochemical, Candida kefyr (Candida macedoniensis) IFO 0960
# Details: not given
Compound,Relative Activity (%),inhibition of the enzyme activity (in words)
[Ca+2].[Cl-].[Cl-] [CaCl2],108%,
[Cl-].[Rb+] [RbCl],107%,
C[n+]1c2cc(N)ccc2cc2ccc(N)cc21.[Cl-] [Trypaflavine],0%,inhibited the enzyme activity strongly
O=S(=O)([O-])[O-].[Zn+2] [ZnSO4],101%,
[Cl][Cd][Cl] [CdCl2],104%,
[Cl-].[K+] [KCl],103%,
O=C(O)CN(CCN(CC(=O)O)CC(=O)O)CC(=O)O [EDTA],110%,
[F-].[Na+] [NaF],101%,
[Cl-].[Na+] [NaCl],108%,
[Cl][Ni][Cl] [NiCl],108%,
O=S(=O)([O-])[O-].[Cu+2] [CuSO4],55.9%,inhibited the enzyme activity moderately
[Cl-].[Cl-].[Mg+2] [MgCl2],111%,
CoCl2,113%,
O=[N+]([O-])[O-].O=[N+]([O-])[O-].[Pb+2] [Pb(NO3)2],0%,inhibited the enzyme activity strongly
[Cl][Mn][Cl] [MnCl2],94.6%,
O=S(=O)([O-])[O-].[Be+2] [BeSO4],80.9%,
O=C(O)CI [Iodoacetate],93.6%,
N#C[S-].[Na+] [NaSCN],93.6%,
[NH4+].[O]=[V](=[O])[O-] [NH4VO3],9.6%,inhibited the enzyme activity moderately
O=[N+]([O-])[O-].[Ag+] [AgNO3],49.1%,inhibited the enzyme activity moderately

# Same assay, conditions: compound added, final concentration of metal 1 mM, substrate 2-cyclohexen-1-one, None = 100
row,Compound,Relative Activity (%)
1,N=C(N)N [Guanidine],61.1%
2,[Cl-].[Li+] [LiCl],104%
3,[Cl][Hg][Cl] [HgCl2],40.8%

# Same assay, conditions: final concentration of metal 1 mM, substrate 2-cyclohexen-1-one
row,Compound,inhibition of the enzyme activity (in words)
1,N=C(N)N [Guanidine],inhibited the enzyme activity moderately
2,[Cl][Hg][Cl] [HgCl2],inhibited the enzyme activity moderately

# System: enone reductase
# Test: Substrate specificity of the enone reductase (standard enzyme assay with various substrates)
# Assay type: biochemical, Candida kefyr (Candida macedoniensis) IFO 0960
# Details: 0.05% final concentration, 30° C.
# Method: (§1) The standard enzyme assay was performed as follows: a total volume of 1 ml of the basal reaction mixture (200 μl of 1 M Tris-HCl buffer pH 7.5, 100 μl of 80 mM NADH or NADPH, 100 μl of 0.658 M ketoisophorone, 600 μl H2O) was supplemented by 5 μl of the enzyme solution and incubated at 40° C. One unit of the enzyme activity was defined as the amount of the enzyme, which catalyzes the […] of 1 μmol of ketoisophorone per minute. The reaction mixture was extracted by 1 ml of ethylacetate to recover the levodione into the ethylacetate layer. The extract was analyzed by gas chromatography [column: ULBON HR-20M (Shinwa, Japan) 0.25 mmφ×30 m, column temperature: 160° C. (constant), injector temperature: 250° C., carrier gas: He (ca. 1 ml/min)]. The protein concentration was determined by using a Bio-Rad protein assay kit (Bio-Rad, USA).
# Substrate specificity of the enzyme was determined by using the same enzyme assay method as described above under (1), except that various substrate solutions (0.05% final concentration in the reaction mixture) were used instead of ketoisophorone, and the reaction was done at 30° C. The relative activity (%) of different substrates is compared in Table 1, showing the best result with 3-butene-2-one.
row,Compound,relative activity of different substrates (in words)
1,C=CC(C)=O [3-Butene-2-one],best result

# Same assay, conditions: as substrate, 0.05% final concentration, 30° C., ketoisophorone = 100
row,Compound,Relative Activity (%)
1,R-(−)-Carvone,56.3%
2,O=C1C=CCCC1 [2-Cyclohexen-1-one],252.1%
3,O=[N+]([O-])C1=CCCCC1 [1-Nitro-1-cyclohexen],373.8%
4,O=CC=Cc1ccccc1 [Cinnamaldehyde],216.7%
5,C=CC(C)=O [3-Butene-2-one],403.3%
6,"CC1=CC(=O)CC(C)(C)C1=O [Ketoisophorone, 2,6,6-trimethyl-2-cyclohexene-1,4-dione]",100%

# System: enone reductase
# Test: Cofactor requirement of the enzyme to convert ketoisophorone to levodione
# Assay type: biochemical, Candida kefyr (Candida macedoniensis) IFO 0960
# Details: not given
# Method: as §1
# The cofactor requirement of the enzyme to convert ketoisophorone to levodione was investigated.
row,Compound,serves as co-factor for the reductive reaction
1,NC(=O)C1=CN([C@@H]2O[C@H](COP(=O)(O)OP(=O)(O)OC[C@H]3O[C@@H](n4cnc5c(N)ncnc54)[C@H](O)[C@@H]3O)[C@@H](O)[C@H]2O)C=CC1 [NADH],could serve as a co-factor
2,NC(=O)C1=CN([C@@H]2O[C@H](COP(=O)(O)OP(=O)(O)OC[C@H]3O[C@@H](n4cnc5c(N)ncnc54)[C@H](OP(=O)(O)O)[C@@H]3O)[C@@H](O)[C@H]2O)C=CC1 [NADPH],could serve as a co-factor
